Reference: article PMC6145916, “Interaction of mitochondrial fission factor with dynamin related protein 1 governs physiological mitochondrial function in vivo” (Scientific Reports, 2018)
Where no end group is shown, it is not given here.

Test system: E17 primary cortical neurons
Assay: Mitochondrial morphology (Tom20), primary cortical neurons
Format: cell-based, rat
Settings: 1 µM P259, two-hour treatment; n = 3, 10 images each
Procedure: Bottom, quantification of the form factor (degree of branching) and aspect ratio (major/minor axis length). At least 10,000 mitochondrial fragments were analyzed for each condition. Mitochondrial reactive oxygen species production (MitoSox Red) (b) and membrane potential (TMRM) (c) after overnight treatment with indicated concentrations of peptide (n = 3, with 3 replicates). […] Overlay of live microscopy imaging at time 0 (green) and 150 (red) seconds. […] An estimation of the % mobile mitochondria from the Pearson coefficient of each set of images. Data are mean ± s.e.
Human neuroblastoma SH-SY5Y cells purchased from ATCC were cultured in a 50/50 mixture of […]
using SH-SY5Y cells were carried out in the same growth medium with the exception of using […]
Wild-type and MFF knockout mouse embryonic fibroblast (MEF) cells were generously provided by Professor David Chan. […]
an NCBI protein blast of the P259 sequence ([…]) was performed across the human genome database and the top 75 gene query hits were recorded.7 The orthologs of each available gene were obtained from the Ensembl database.8 Of the resulting 75 human gene hits, 37 had […]
The effect of peptides on GTPase activity of Drp1 was measured by incubating recombinant Drp1 […]
for 1 hour at 37 °C. GTPase activity was measured using a colorimetric GTPase assay kit (Novus Biologicals, CO, USA) as instructed by the manufacturer. […]

With “YGRKKRRQRRRGSGIIQLPEIVVV-NH2 (C-terminus assumed) [P259]” the mitochondrial morphology was “more elongated and branched mitochondria”.
